According to US7238659B2, “Reducing axon degeneration with proteasome inhibitors” (Children's Medical Center Corporation, priority 2003, dated 2007):
Square brackets hold non-standard residues; d marks the D form. Peptide text beside a SMILES is read from it. * marks the point of attachment. Sta = CC(C)C[C@H](N)[C@@H](O)CC(=O)O; Isovaleryl = CC(C)CC(=O)*; Nle = CCCC[C@H](N)C(=O)O; Nva = CCC[C@H](N)C(=O)O; Cbz = O=C(OCc1ccccc1)*; CH2F = FC*

What was measured:
[1] = tested on: transected axons from cultured sympathetic neurons; test: Wallerian degeneration of transected axons in cultured sympathetic ganglia; type: cell-based, rat; parameters: development of the axonal beading appearance / disintegration of transected axons into debris: dose or concentration left out as unconfirmed; conditions: for protective effect on Wallerian degeneration: added to sympathetic cultures prior to axotomy, EGTA 2 mM; for time post-axotomy until degeneration is shown: untreated transected axons: early signs 8 hr post-axotomy
Text: Inhibiting the ubiquitin-proteasome pathway delays Wallerian degeneration. Wallerian degeneration in most transected mammalian nerve fibers is a complex sequence that entails degradation of the axon, changes in the ensheathing and glial cells, alterations in the blood-tissue barriers, and responses of macrophage-lineage cells (reviewed by Griffin et al., 1995). To study the underlying mechanisms involved in the axon degeneration process, we have used the degeneration of transected axons from cultured primary neurons as models (Buckmaster et al., 1995; George et al., 1995; Wang et al., 2001). In cultured sympathetic ganglia derived from postnatal day 3 (p3) rats, soma-deprived axons undergo a typical degenerative process (herein, George et al., 1995; Wang et al., 2001). The severed axons first appear normal for 6-10 hr, depending upon the duration of culturing prior to axotomy. For sympathetic ganglia that have been cultured for 5 days, the severed axons begin to develop such signs of early degeneration as focal swelling and beading approximately 8 hrs after the axons had been separated from their cell bodies. In most cases, the axons would be completely degenerated and detached after 12-16 hr post-axotomy. Similar degenerative processes were also observed in other types of cultured neurons, such as chicken dorsal root ganglion neurons and retinal ganglion cells.
We examined whether UPS is involved in axotomy-triggered Wallerian degeneration by using specific pharmacological inhibitors. It is known that for UPS to degrade a specific substrate protein, the sequential action of three enzymes, including a ubiquitin activating enzyme (E1), a ubiquitin conjugating enzyme (E2), and a ubiquitin ligase (E3), is required to covalently link ubiquitin to the substrate. Poly-ubiquitinated proteins are then targeted for degradation by the 26S proteasome, which is composed of two 19S proteasome regulatory particles and a 20S core. Substrate ubiquitination may also be reversed by ubiquitin proteases (reviewed by Weissman, 2001). In spite of the existence of multiple E2 and E3 molecules, the final and common step in degrading polyubiquitinated protein substrates is through the 26S proteasome machinery. Consistent with previous evidence for the existence and functioning of the UPS in axons (Campbell and Holt, 2001, 2003), components of UPS machinery, such as subunit C2 of the proteasome 20S, were found in both intact and transected axons from sympathetic neurons. Thus, to perturb UPS activity we used two mechanistically different proteasome inhibitors, MG132, a peptide-based reversible proteasome inhibitor (Rock et al., 1994), and lactacystin, a […] irreversible proteasome inhibitor (Fenteany et al., 1995), both of which had been extensively used to inhibit UPS activity in many different cell types including cultured neurons (Campbell and Holt, 2001, 2003).
24 hr post-axotomy when most of the axon debris has detached from the culture surface in control cultures, proteasome inhibitor-treated explants still retained many axons with some degeneration signs, which remained up to 36 hr post-axotomy.
8 hr post-axotomy, approximately 90% of axons from control HSV-infected explants, and only about 40% of axons from HSV-UBP2-infected ones, developed a beading appearance. However, the protective effects of UBP2 overexpression were less robust than those of the proteasome inhibitors, presumably due to the low expression levels of UBP2.
As previous studies have implicated calpains, a class of calcium-dependent proteases, in Wallerian degeneration (George et al., 1995; Finn et al., 2000), we also examined the contribution of calpain activity in our assays with specific calpain inhibitors such as ALLN (Finn et al., 2000). […] 16 hr after axotomy when most of the transected axons from control cultures degenerated into debris, there were still remaining axon fibers in ALLN-treated cultures.

[2] = tested on: axons of cultured neurons; test: Axon degeneration elicited by calcium ionophore A23187 or ionomycin; type: cell-based
[3] = tested on: microtubules and neurofilaments of transected axons; test: Breakdown of axonal cytoskeleton (microtubules, neurofilaments) in transected axons, immunostaining and Western blotting; type: cell-based, rat
Text: Microtubule destabilization at the initiation stage of Wallerian degeneration in vitro. We next examined which cellular events might correlate with the involvement of UPS and calpains in Wallerian degeneration. We monitored the integrity of different subcellular organelles in the transected axons by both immunocytochemistry and membrane labeling. […] At the protein level, we observed a corresponding cleavage of the neurofilament subunits, neurofilament 160 (NF-160) and neurofilament 68 (NF68) as detected by Western blotting.
Apart from these axonal markers, however, the earliest detectable change appears to occur in the microtubules of transected axons. […] After 12 hr post-axotomy, the stained signals of fragmented microtubule structures weakened gradually and were replaced by many spheroid bodies in severed axons. By 16 hr after axotomy, almost all of the detected signals were spheroid bodies along the tracts of original axons. Even 16 hrs after axotomy when the majority of the axonal NF160 and NF68 has been degraded, most of the tubulin proteins still remained intact and the protein level remained stable according to Western blotting. To provide additional biochemical evidence for such an axotomy-elicited microtubule destabilization in transected axons at early stages of Wallerian degeneration, we separated monomeric (soluble, S) and polymerized (pellet, P) tubulins from transected axons and measured the depolymerization ratio (S/[S+P]) at different time points.
UPS and calpains mediate the breakdown of axonal cytoskeleton components. To explore the link between these cellular and molecular changes during Wallerian degeneration, we next examined whether proteasome inhibitors, calpain inhibitors, and EGTA affect neurofilaments and microtubules in transected axons. […] On the other hand, ALLN only delayed neurofilament degradation, but not the fragmentation of microtubules.

[4] = tested on: corticospinal tract (CST) after midthoracic spinal cord transection with human Schwann cell grafts; test: Corticospinal Tract (CST) Regeneration Assay; type: in vivo, adult nude rat; parameters: key: dramatically reduce (+++ or ++++) axonal degeneration; dramatically reduce (+++ or ++++) axonal degeneration; conditions: inhibitor in fibrin glue; thirty-five days after grafting
Protocol: Corticospinal Tract (CST) Regeneration Assay. Proteasome inhibitors are assayed for their ability to improve corticospinal tract (CST) regeneration following thoracic spinal cord injury by promoting CST regeneration into human Schwann cell grafts in the methods of Guest et al. (1997, supra). […] Inhibitors are incorporated into a fibrin glue and placed in the same region. Anterograde tracing from the motor cortex using the dextran amine tracers, Fluororuby (FR) and biotinylated dextran amine (BDA), are performed. Thirty-five days after grafting, the CST response is evaluated qualitatively by looking for reduced degeneration of CST fibers in or beyond grafts and quantitatively by constructing camera lucida composites to determine the sprouting index (SI), the position of the maximum termination density (MTD) rostral to the GFAP-defined host/graft interface, and the longitudinal spread (LS) of bulbous end terminals. The latter two measures provide information about axonal die-back.

transected optic nerve = test: Wallerian degeneration of transected optic nerve in vivo (gelfoam at lesion site); parameters: species or system mice; conditions: gelfoam pre-soaked with 50 mM MG132; 3 days post-axotomy; immunostaining
Text: MG132 slows down Wallerian degeneration of transected optic nerve in vivo. To assess whether these observations from in vitro culture experiments hold true in vivo, we first performed immunostaining experiments to examine the alterations of microtubules and neurofilaments in transected optic nerves. […] In optic nerves 3 days after axotomy when an antibody against NF160 still detected many linear neurofilament fibers, the antibody against a neuron specific b-tubulin detected largely spheroid bodies, reminiscent of the microtubule changes observed in vitro 16 hr post-axotomy. […] To examine whether proteasome inhibitors would retard Wallerian degeneration in vivo, we applied gelfoams pre-soaked with vehicle (PBS) or MG132 to the lesion sites and examined the transected optic nerves 3 days post-axotomy by immunostaining. Our experimental procedures were adapted from Meyer et al. (1994). In brief, adult mice were anesthetized by an intraperitoneal injection of ketamine (100 mg/kg) and xylazine (20 mg/kg). An incision was then made in the conjunctiva above the left orbit. The optic nerve was exposed under an operating microscope, and its dura opened longitudinally. […] At determined days after nerve crush, the animals were given a lethal dose of anesthesia and perfused through the heart with cold saline plus heparin followed by 4% paraformaldehyde. […]

[5] = tested on: NGF-deprived sympathetic neurons; test: Neurite degeneration in NGF-deprived sympathetic neurons; type: cell-based; conditions: 36 hr after NGF deprivation; for death of cell bodies after NGF deprivation: Hoechst 33258 nuclei staining
Text: Proteasome inhibitors also delay neurite degeneration in NGF-deprived sympathetic neurons. In addition to transected axons, axons from neurons that have been deprived of their physiological trophic factors may also undergo a Wallerian-like degeneration process (reviewed by Raff et al., 2002). If the distal part of an axon of a cultured sympathetic neuron is locally deprived of NGF, that part of the axon degenerates while the rest of the cell and axon survives (Campenot, 1982). Moreover, it has been shown that such an NGF deprivation-triggered axon degeneration is delayed in the sympathetic neurons from Wld^s mice (Deckwerth and Johnson, 1994). We thus decided to investigate whether UPS is also involved in NGF deprivation-triggered axon degeneration. Consistent with previous studies (for example, Deckwerth and Johnson, 1994), 36 hr after NGF deprivation, all of the cultured sympathetic neurons underwent a typical apoptosis program with death of cell bodies as detected by nuclei staining with Hoechst 33258 (a few normally stained nuclei are glial cells) and degeneration of axons as indicated by both morphological criteria and immunostaining.

[6] = tested on: axons of cultured neurons; test: Induction of axon degeneration by cytoskeleton-disrupting agent; type: cell-based
Text: Thus, among the three major polymer components of the axon cytoskeleton, microtubules play a particularly important role in maintaining the integrity of axons. Consistent is the observation of microtubule disruption as the earliest detectable change during the physiological process of axon pruning in Drosophila metamorphosis (Watts et al., 2003).

Compound: O=C(O)CN(CCOCCOCCN(CC(=O)O)CC(=O)O)CC(=O)O [EGTA]
- protective effect on Wallerian degeneration [1]: much stronger protective effect
- axon degeneration elicited by calcium ionophore A23187 or ionomycin [2]: blocked
- degeneration of all examined subcellular markers (destabilization of microtubules and cleavage of neurofilaments) ([3]; transected axons): profoundly retarded

Compound: CC(=O)N[C@@H](CSC(=O)[C@]1([C@@H](O)C(C)C)NC(=O)[C@H](C)[C@@H]1O)C(=O)O [Lactacystin]
- time post-axotomy until degeneration is shown [1]: 16 h
- degeneration of all examined subcellular markers (destabilization of microtubules and cleavage of neurofilaments) ([3]; transected axons): profoundly retarded
- Reduce Degeneration [4]: +++

Compound: CCCC[C@@H](C=O)NC(=O)[C@H](CC(C)C)NC(=O)[C@H](CC(C)C)NC(C)=O [MG-101, Ac-Leu-Leu-Nle-CHO] (Ac-Leu-Leu-[Nle]-aldehyde)
- development of the axonal beading appearance [1]: did not affect
- disintegration of transected axons into debris ([1]; 16 hr after axotomy): slightly delayed
- calpain-dependent degradation of neurofilaments NF160 and NF68 ([3]; Western blotting): completely prevented
- neurofilament degradation ([3]; transected axons): only delayed
- Reduce Degeneration [4]: +++

Compound: CCC[C@@H](C=O)NC(=O)[C@H](CC(C)C)NC(=O)[C@H](CC(C)C)NC(=O)OCc1ccccc1 [MG-115, Carbobenzoxy-L-leucyl-L-leucyl-L-norvalinal] (Cbz-Leu-Leu-[Nva]-aldehyde)
- Reduce Degeneration [4]: ++++

Compound: CC(C)C[C@@H](C=O)NC(=O)[C@H](CC(C)C)NC(=O)[C@H](CC(C)C)NC(=O)OCc1ccccc1 [MG-132, Carbobenzoxy-L-leucyl-L-leucyl-L-leucinal] (Cbz-Leu-Leu-Leu-aldehyde)
- time post-axotomy until degeneration is shown [1]: 16 h
- degeneration of all examined subcellular markers (destabilization of microtubules and cleavage of neurofilaments) ([3]; transected axons): profoundly retarded
- breakdown of microtubules, neurofilaments and axolemma in transected optic nerves (transected optic nerve): significantly slowed
- axon (neurite) degeneration after NGF deprivation [5]: the majority of the axons were still intact
- death of cell bodies after NGF deprivation [5]: still showed clear apoptotic staining
- Reduce Degeneration [4]: +++

Compound: CC(C)C[C@H](NC(=O)[C@H](CC(C)C)NC(=O)[C@H](CC(C)C)NC(=O)OCc1ccccc1)B(O)O [MG-262, Z-Leu-Leu-Leu-B(OH)2]
- Reduce Degeneration [4]: +++

Compound: CC(C)C[C@H](NC(=O)[C@H](Cc1ccccc1)NC(=O)c1cnccn1)B(O)O [PS-341, bortezomib]
- Reduce Degeneration [4]: ++++

Compound: CC(C)[C@H](O)[C@@]12NC(=O)[C@H](C)[C@@H]1OC2=O [PS-519, clasto-Lactacystin β-Lactone]
- Reduce Degeneration [4]: ++++

Compound: COC(=O)C[C@H](NC(=O)[C@H](C)NC(=O)[C@@H](NC(=O)OCc1ccccc1)C(C)C)C(=O)CF [Z-VAD-fmk] (Cbz-Val-Ala-Asp(OMe)-CH2F)
- protective effect on Wallerian degeneration [1]: did not result in any detectable protective effect
- axon (neurite) degeneration after NGF deprivation [5]: efficiently prevented
- death of cell bodies after NGF deprivation [5]: efficiently prevented

Compound: C/C1=C/C(=O)O[C@@H]2C[C@@H](CC[C@H](C)/C=C\CC1)O[C@@](O)([C@@H]1CSC(=O)N1)C2 [latrunculin B]
- induction of axon degeneration [6]: failed to induce axon degeneration

Compound: CC(C)CC(=O)N[C@H](C(=O)N[C@H](C(=O)N[C@@H](CC(C)C)[C@@H](O)CC(=O)N[C@@H](C)C(=O)N[C@@H](CC(C)C)[C@@H](O)CC(=O)O)C(C)C)C(C)C [pepstatin.A] (Isovaleryl-VV[Sta]A[Sta]-OH)
- protective effect on Wallerian degeneration [1]: did not result in any detectable protective effect

Compound: CC(C)C(O)C12NC(=O)C(C)(C)C1OC2=O (stereo not drawn) [α-Methylomuralide, α-Methyl clasto-Lactacystin β-Lactone]
- Reduce Degeneration [4]: ++++
